From US4605744A, “Imidazole derivatives” (Hoffmann-La Roche Inc., priority 1985, dated 1986)
Values after ≈ are worked out from the molar mass of the structure shown. Structures can show the parent of a compound that is named as a salt. Where two headings read alike, the source gives them in different places.

Experiments:
Assay in all cases: In vitro antibacterial activity (MIC)
Format in all cases: cell-based
K. pneumoniae 503-994 = settings: Klebsiella pneumoniae, 503994, K. pneumoniae 503-994; read-out: MIC
Outline: (§1)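 Overnight cultures, diluted 10^-2, were added at 1.5 μl per well to twofold drug series (128–0.008 μg/ml) in Mueller-Hinton broth.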

P. aeruginosa 8780 = settings: Pseudomonas aeruginosa; P. aeruginosa 8780; read-out: MIC
Outline: as §1

K. pneumoniae 503-964 = settings: Klebsiella pneumoniae, 503964; K. pneumoniae 503-964; read-out: MIC
Outline: as §1

S. pyogenes 503-782 = settings: Streptococcus pyogenes, 503782; S. pyogenes 503-782; read-out: MIC
Outline: as §1

S. aureus 1059B = settings: Staphylococcus aureus, read-out: MIC
Outline: as §1

P. mirabilis 620A = settings: Proteus mirabilis, 620A, P. mirabilis 620A; read-out: MIC
Outline: as §1

K. pneumoniae 8357 = settings: Klebsiella pneumoniae, 8357, K. pneumoniae 8357; read-out: MIC
Outline: as §1

E. coli 4 = settings: Escherichia coli, 4, E. coli 4; read-out: MIC
Outline: as §1

E. aerogenes 503-478 = settings: Klebsiella aerogenes, 503478, E. aerogenes 503-478; read-out: MIC
Outline: as §1

K. pneumoniae 35 = settings: Klebsiella pneumoniae; K. pneumoniae 35; read-out: MIC
Outline: as §1

E. cloacae 9570A = settings: Enterobacter cloacae, read-out: MIC
Outline: as §1

P. vulgaris 100 = settings: Proteus vulgaris; P. vulgaris 100; read-out: MIC
Outline: as §1

K. pneumoniae 4964 = settings: Klebsiella pneumoniae, 4964, K. pneumoniae 4964; read-out: MIC
Outline: as §1

S. marcescens S4 = settings: Serratia marcescens, S4, S. marcescens S4; read-out: MIC
Outline: as §1

P. aeruginosa 5712 = settings: Pseudomonas aeruginosa; P. aeruginosa 5712; read-out: MIC
Outline: as §1

E. cloacae 6951 = settings: Enterobacter cloacae, 6951, E. cloacae 6951; read-out: MIC
Outline: as §1

P. mirabilis 2 = settings: Proteus mirabilis, 2, P. mirabilis 2; read-out: MIC
Outline: as §1

S. marcescens S2 = settings: Serratia marcescens; S. marcescens S2; read-out: MIC
Outline: as §1

S. marcescens S714 = settings: Serratia marcescens, S714, S. marcescens S714; read-out: MIC
Outline: as §1

E. coli 503-455 = settings: Escherichia coli, 503455, E. coli 503-455; read-out: MIC
Outline: as §1

S. aureus Giorgio = settings: Staphylococcus aureus, S. aureus Giorgio; read-out: MIC
Outline: as §1

S. marcescens SM = settings: Serratia marcescens, read-out: MIC
Outline: as §1

E. cloacae 9295 = settings: Enterobacter cloacae, 9295, E. cloacae 9295; read-out: MIC
Outline: as §1

E. coli 5152 = settings: Escherichia coli, 5152, E. coli 5152; read-out: MIC
Outline: as §1

C. diversus CDC 1663-72 = settings: Citrobacter koseri, CDC166372
Outline: as §1

E. coli 48 = settings: Escherichia coli, 48, E. coli 48; read-out: MIC
Outline: as §1

E. cloacae 214 = tested on: E. cloacae 214
Outline: as §1

S. faecalis C1 = settings: Enterococcus faecalis; S. faecalis C1; read-out: MIC
Outline: as §1

E. aerogenes 8 = settings: Klebsiella aerogenes; E. aerogenes 8; read-out: MIC
Outline: as §1

P. aeruginosa 6148B = settings: Pseudomonas aeruginosa, read-out: MIC
Outline: as §1

P. vulgaris 101 = settings: Proteus vulgaris, 101, P. vulgaris 101; read-out: MIC
Outline: as §1

K. pneumoniae HE7 = settings: Klebsiella pneumoniae; K. pneumoniae HE7; read-out: MIC
Outline: as §1

S. marcescens S5 = settings: Serratia marcescens, S5, S. marcescens S5; read-out: MIC
Outline: as §1

S. marcescens S1 = settings: Serratia marcescens, S1, S. marcescens S1; read-out: MIC
Outline: as §1

P. aeruginosa B = settings: Pseudomonas aeruginosa, read-out: MIC
Outline: as §1

S. aureus Smith = settings: Staphylococcus aureus, S. aureus Smith; read-out: MIC
Outline: as §1

E. coli 387-1 = tested on: E. coli 387-1
Outline: as §1

P. aeruginosa 503-820 = settings: Pseudomonas aeruginosa, 503820; P. aeruginosa 503-820; read-out: MIC
Outline: as §1

S. schottmuelleri = settings: read-out: MIC
Outline: as §1

P. aeruginosa Stone 130 = settings: Pseudomonas aeruginosa, STONE130, read-out: MIC
Outline: as §1

S. marcescens S147 = settings: Serratia marcescens; S. marcescens S147; read-out: MIC
Outline: as §1

P. aeruginosa POW 151 = settings: Pseudomonas aeruginosa, POW151
Outline: as §1

E. aerogenes 83 = settings: Klebsiella aerogenes, 83, E. aerogenes 83; read-out: MIC
Outline: as §1

S. marcescens 5805 = settings: Serratia marcescens, 5805, S. marcescens 5805; read-out: MIC
Outline: as §1

P. aeruginosa 5700 = settings: Pseudomonas aeruginosa, 5700, P. aeruginosa 5700; read-out: MIC
Outline: as §1

Structure (SMILES): CC1(C)S[C@@H]2[C@H](N=CN3CCC(CCCn4ccnc4)CC3)C(=O)N2[C@H]1C(=O)O [C, [2S-(2alpha,5alpha,6beta)]-6-[[4-[3-(1H-imidazol-1-yl)propyl]-1-piperidinyl]methylene]amino]-3,3-dimethyl-7-oxo-4-thia-1-azabicyclo[3.2.0]heptane-2-carboxylic acid 1.2 mole hydrochloride monohydrate]
- MIC (K. pneumoniae 503-994): 32 µg/mL
- MIC (P. aeruginosa 8780): > 128 µg/mL
- MIC (K. pneumoniae 503-964): 8 µg/mL
- MIC (S. pyogenes 503-782): > 128 µg/mL
- MIC (S. aureus 1059B): > 128 µg/mL
- MIC (P. mirabilis 620A): > 128 µg/mL
- MIC (K. pneumoniae 8357): 16 µg/mL
- MIC (E. coli 4): 8 µg/mL
- MIC (E. aerogenes 503-478): 128 µg/mL
- MIC (K. pneumoniae 35): 8 µg/mL
- MIC (E. cloacae 9570A): 16 µg/mL
- MIC (P. vulgaris 100): > 128 µg/mL
- MIC (K. pneumoniae 4964): > 128 µg/mL
- MIC (S. marcescens S4): 32 µg/mL
- MIC (P. aeruginosa 5712): > 128 µg/mL
- MIC (E. cloacae 6951): > 128 µg/mL
- MIC (P. mirabilis 2): 16 µg/mL
- MIC (S. marcescens S2): 16 µg/mL
- MIC (S. marcescens S714): 32 µg/mL
- MIC (E. coli 503-455): 128 µg/mL
- MIC (S. aureus Giorgio): > 128 µg/mL
- MIC (S. marcescens SM): 8 µg/mL
- MIC (E. cloacae 9295): 16 µg/mL
- MIC (E. coli 5152): > 128 µg/mL
- MIC (C. diversus CDC 1663-72; C. diversus CDC 1663-72, read-out: MIC): 4 µg/mL
- MIC (E. coli 48): 2 µg/mL
- MIC (E. cloacae 214; Enterobacter cloacae, 214, E. cloacae 214, read-out: MIC): 16 µg/mL
- MIC (S. faecalis C1): > 128 µg/mL
- MIC (E. aerogenes 8): > 128 µg/mL
- MIC (P. aeruginosa 6148B): > 128 µg/mL
- MIC (P. vulgaris 101): 128 µg/mL
- MIC (K. pneumoniae HE7): > 128 µg/mL
- MIC (S. marcescens S5): 64 µg/mL
- MIC (S. marcescens S1): 128 µg/mL
- MIC (P. aeruginosa B): 8 µg/mL
- MIC (S. aureus Smith): > 128 µg/mL
- MIC (E. coli 387-1; Escherichia coli, 3871, E. coli 387-1, read-out: MIC): 8 µg/mL
- MIC (P. aeruginosa 503-820): > 128 µg/mL
- MIC (S. schottmuelleri): 4 µg/mL
- MIC (P. aeruginosa Stone 130): > 128 µg/mL
- MIC (S. marcescens S147): 16 µg/mL
- MIC (P. aeruginosa POW 151): > 128 µg/mL
- MIC (E. aerogenes 83): > 128 µg/mL
- MIC (S. marcescens 5805): 32 µg/mL
- MIC (P. aeruginosa 5700): 16 µg/mL

Structure (SMILES): CC1(C)S[C@@H]2[C@H](N=CN3CCC(Cn4ccnc4)CC3)C(=O)N2[C@H]1C(=O)O [Compound A]
- MIC (K. pneumoniae 503-994): 0.25 µg/mL (≈ 0.639 µM)
- MIC (P. aeruginosa 8780): > 128 µg/mL
- MIC (K. pneumoniae 503-964): 0.016 µg/mL (≈ 0.0409 µM)
- MIC (S. pyogenes 503-782): 128 µg/mL (≈ 327 µM)
- MIC (S. aureus 1059B): 32 µg/mL (≈ 81.7 µM)
- MIC (P. mirabilis 620A): 16 µg/mL (≈ 40.9 µM)
- MIC (K. pneumoniae 8357): 0.25 µg/mL (≈ 0.639 µM)
- MIC (E. coli 4): 0.062 µg/mL (≈ 0.158 µM)
- MIC (E. aerogenes 503-478): 0.062 µg/mL (≈ 0.158 µM)
- MIC (K. pneumoniae 35): 0.25 µg/mL (≈ 0.639 µM)
- MIC (E. cloacae 9570A): 0.5 µg/mL (≈ 1.28 µM)
- MIC (P. vulgaris 100): 8 µg/mL (≈ 20.4 µM)
- MIC (K. pneumoniae 4964): 2 µg/mL (≈ 5.11 µM)
- MIC (S. marcescens S4): 1 µg/mL (≈ 2.55 µM)
- MIC (P. aeruginosa 5712): > 128 µg/mL
- MIC (E. cloacae 6951): 4 µg/mL (≈ 10.2 µM)
- MIC (P. mirabilis 2): 0.5 µg/mL (≈ 1.28 µM)
- MIC (S. marcescens S2): 0.25 µg/mL (≈ 0.639 µM)
- MIC (S. marcescens S714): 1 µg/mL (≈ 2.55 µM)
- MIC (E. coli 503-455): 2 µg/mL (≈ 5.11 µM)
- MIC (S. aureus Giorgio): 8 µg/mL (≈ 20.4 µM)
- MIC (S. marcescens SM): 0.25 µg/mL (≈ 0.639 µM)
- MIC (E. cloacae 9295): 0.5 µg/mL (≈ 1.28 µM)
- MIC (E. coli 5152): 16 µg/mL (≈ 40.9 µM)
- MIC (C. diversus CDC 1663-72): 0.125 µg/mL (≈ 0.319 µM)
- MIC (E. coli 48): 0.062 µg/mL (≈ 0.158 µM)
- MIC (E. cloacae 214; Enterobacter cloacae, 214): 0.125 µg/mL (≈ 0.319 µM)
- MIC (S. faecalis C1): 128 µg/mL (≈ 327 µM)
- MIC (E. aerogenes 8): 32 µg/mL (≈ 81.7 µM)
- MIC (P. aeruginosa 6148B): > 128 µg/mL
- MIC (P. vulgaris 101): 16 µg/mL (≈ 40.9 µM)
- MIC (K. pneumoniae HE7): > 128 µg/mL
- MIC (S. marcescens S5): 2 µg/mL (≈ 5.11 µM)
- MIC (S. marcescens S1): 0.25 µg/mL (≈ 0.639 µM)
- MIC (P. aeruginosa B): 0.25 µg/mL (≈ 0.639 µM)
- MIC (S. aureus Smith): 8 µg/mL (≈ 20.4 µM)
- MIC (E. coli 387-1; Escherichia coli, 3871): 0.125 µg/mL (≈ 0.319 µM)
- MIC (P. aeruginosa 503-820): > 128 µg/mL
- MIC (S. schottmuelleri): 0.125 µg/mL (≈ 0.319 µM)
- MIC (P. aeruginosa Stone 130): > 128 µg/mL
- MIC (S. marcescens S147): 0.25 µg/mL (≈ 0.639 µM)
- MIC (P. aeruginosa POW 151): > 128 µg/mL
- MIC (E. aerogenes 83): 2 µg/mL (≈ 5.11 µM)
- MIC (S. marcescens 5805): 1 µg/mL (≈ 2.55 µM)
- MIC (P. aeruginosa 5700): 0.25 µg/mL (≈ 0.639 µM)
